From patent US20230066946A1, “1,5-DIPHENYLPYRAZOLYL-3-OXYALKYL ACIDS AND 1-PHENYL-5-THIENYLPYRAZOLYL-3-OXYALKYL ACIDS AND THE USE THEREOF FOR CONTROL OF UNWANTED PLANT GROWTH” (Bayer Aktiengesellschaft, priority 2019, published 2023)

Legend:
[1] = tested on: AMARE; assay: Pre-emergence herbicidal action against AMARE; format: in vivo, Amaranthus retroflexus; conditions: scored visually after about 3 weeks vs untreated controls; for Pre-emergence action against AMARE in %: 1280 g/ha; for Pre-emergence action at 320 g/ha against AMARE in %: 100% = plants have died, 0% = like control plants
Summary of the method: (§1)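 Visual percent activity (100% = plants dead, 0% = like control) scored about 3 weeks after pre-emergence treatment in greenhouse. Compounds as WP or EC, applied to covering soil surface with 0.5% additive, 600 L/ha water, at 1280 or 320 g/ha.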

[2] = tested on: VIOTR; assay: Pre-emergence herbicidal action against VIOTR; format: in vivo, Viola tricolor; conditions: 1280 g/ha, scored visually after about 3 weeks vs untreated controls
Text: (§2) Seeds of mono- and dicotyledonous weed plants are placed in plastic pots in sandy loam soil (doubly sown with one species each of mono- or dicotyledonous weed plants per pot) and covered with soil. The compounds of the invention, formulated in the form of wettable powders (WP) or as emulsion concentrates (EC), are then applied onto the surface of the covering soil as aqueous suspension or emulsion with addition of 0.5% additive at a water application rate equivalent to 600 litres per hectare. After the treatment, the pots are placed in a greenhouse and kept under good growth conditions for the trial plants. After about 3 weeks, the effect of the preparations is scored visually in comparison with untreated controls as percentages. For example, 100% activity=the plants have died, 0% activity=like control plants. [table] Tables 4.1-4.15 below show the effects of selected compounds of the general formula (I) according to Tables 1 to 3 on various harmful plants at an application rate corresponding to 1280 or 320 g/ha, which have been obtained by the aforementioned experimental method.

[3] = tested on: ALOMY; assay: Post-emergence herbicidal action against ALOMY; format: in vivo, Alopecurus myosuroides; conditions: 1280 g/ha, post-emergence at one-leaf stage, rated visually after about 3 weeks vs untreated controls
Protocol: (§3) [table] Seeds of mono- and dicotyledonous weed plants are placed in plastic pots in sandy loam soil (twin sowing with one species each of mono- or dicotyledonous weed plants per pot), covered with soil and cultivated in a greenhouse under controlled growth conditions. 2 to 3 weeks after sowing, the test plants are treated at the one-leaf stage. The compounds of the invention, formulated in the form of wettable powders (WP) or as emulsion concentrates (EC), are applied to the green parts of the plants as aqueous suspension or emulsion with addition of 0.5% additive at a water application rate equivalent to 600 litres per hectare. After the test plants have been kept in the greenhouse under optimum growth conditions for about 3 weeks, the activity of the preparations is rated visually in comparison to untreated controls. For example, 100% activity=the plants have died, 0% activity=like control plants. Tables 5.1-5.16 below show the effects of selected compounds of the general formula (I) according to Tables 1 to 3 on various harmful plants at an application rate corresponding to 1280 or 320 g/ha, which have been obtained by the aforementioned experimental method.

[4] = tested on: AVEFA; assay: Post-emergence herbicidal action against AVEFA; format: in vivo, Avena fatua; conditions: 1280 g/ha, post-emergence at one-leaf stage, rated visually after about 3 weeks vs untreated controls
Protocol: as §3

[5] = tested on: MATIN; assay: Post-emergence herbicidal action against MATIN; format: in vivo, Matricaria inodora; conditions: visual rating about 3 weeks after treatment
Summary of the method: (§4)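 Visual scoring, where 100% = dead and 0% = like untreated plants, was done about 3 weeks after treatment. Dose was 1280 or 320 g/ha, delivered as aqueous WP/EC suspension or emulsion with 0.5% additive at 600 L/ha. Pot-grown weeds in sandy loam were treated post-emergence at one leaf, 2-3 weeks post-sowing.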

[6] = tested on: PHBPU; assay: Post-emergence herbicidal action against PHBPU; format: in vivo, Pharbitis purpurea; conditions: 320 g/ha, visual rating about 3 weeks after treatment
Summary of the method: as §4

[7] = tested on: POLCO; assay: Post-emergence herbicidal action against POLCO; format: in vivo, Polygonum convolvulus; conditions: 320 g/ha, visual rating about 3 weeks after treatment
Summary of the method: as §4

[8] = tested on: STEME; assay: Post-emergence herbicidal action against STEME; format: in vivo, Stellaria media; conditions: visual rating about 3 weeks after treatment
Summary of the method: as §4

[9] = tested on: VIOTR; assay: Post-emergence herbicidal action against VIOTR; format: in vivo, Viola tricolor; conditions: 320 g/ha, visual rating about 3 weeks after treatment
Summary of the method: as §4

[10] = tested on: VERPE; assay: Post-emergence herbicidal action against VERPE; format: in vivo, Veronica persica; conditions: 320 g/ha, visual rating about 3 weeks after treatment
Summary of the method: as §4

[11] = tested on: CYPES; assay: Pre-emergence herbicidal action against CYPES; format: in vivo, Cyperus esculentus; conditions: scored visually after about 3 weeks vs untreated controls, 100% = plants have died, 0% = like control plants
Text: as §2

[12] = tested on: ECHCG; assay: Pre-emergence herbicidal action against ECHCG; format: in vivo, Echinochloa crus-galli; conditions: scored visually after about 3 weeks vs untreated controls, 100% = plants have died, 0% = like control plants
Summary of the method: as §1

[13] = tested on: SETVI; assay: Pre-emergence herbicidal action against SETVI; format: in vivo, Setaria viridis; conditions: 1280 g/ha, scored visually after about 3 weeks vs untreated controls
Summary of the method: as §1

[14] = tested on: MATIN; assay: Pre-emergence herbicidal action against MATIN; format: in vivo, Matricaria inodora; conditions: 1280 g/ha, scored visually after about 3 weeks vs untreated controls
Summary of the method: as §1

[15] = tested on: STEME; assay: Pre-emergence herbicidal action against STEME; format: in vivo, Stellaria media; conditions: 1280 g/ha, scored visually after about 3 weeks vs untreated controls
Summary of the method: as §1

[16] = tested on: VERPE; assay: Pre-emergence herbicidal action against VERPE; format: in vivo, Veronica persica; conditions: 320 g/ha, scored visually after about 3 weeks vs untreated controls
Summary of the method: as §1

[17] = tested on: ECHCG; assay: Post-emergence herbicidal action against ECHCG; format: in vivo, Echinochloa crus-galli; conditions: 1280 g/ha, post-emergence at one-leaf stage, rated visually after about 3 weeks vs untreated controls
Summary of the method: as §4

[18] = tested on: SETVI; assay: Post-emergence herbicidal action against SETVI; format: in vivo, Setaria viridis; conditions: 1280 g/ha, post-emergence at one-leaf stage, rated visually after about 3 weeks vs untreated controls
Summary of the method: as §4

[19] = tested on: AMARE; assay: Post-emergence herbicidal action against AMARE; format: in vivo, Amaranthus retroflexus; conditions: visual rating about 3 weeks after treatment
Summary of the method: as §4

[20] = tested on: harmful plants; assay: Pre-emergence herbicidal action, summary of Tables 4.1-4.15; format: in vivo; conditions: result in words
Summary of the method: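 Percent herbicidal action (100% = plants dead, 0% = like controls) was assessed visually about 3 weeks after treatment. Application rates of 1280 or 320 g/ha were applied to the covering soil of freshly sown sandy-loam pots, in 600 l/ha water with 0.5% additive, before emergence.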

[21] = tested on: PHBPU; assay: Pre-emergence herbicidal action against PHBPU; format: in vivo, Pharbitis purpurea; conditions: 1280 g/ha, scored visually after about 3 weeks vs untreated controls
Text: as §2

SMILES	Pre-emergence action against AMARE in % [1] [%]	Pre-emergence action against VIOTR in % [2] [%]	Post-emergence action against ALOMY in % [3] [%]	Post-emergence action against AVEFA in % [4] [%]	Post-emergence action against MATIN in % ([5]; 320 g/ha) [%]	Post-emergence action against MATIN in % ([5]; 1280 g/ha) [%]	Post-emergence action against PHBPU in % [6] [%]	Post-emergence action against POLCO in % [7] [%]	Post-emergence action against STEME in % ([8]; 1280 g/ha) [%]	Post-emergence action against VIOTR in % [9] [%]	Post-emergence action against VERPE in % [10] [%]	Pre-emergence action at 1280 g/ha against CYPES in % [11] [%]	Pre-emergence action at 1280 g/ha against ECHCG in % [12] [%]	Pre-emergence action against SETVI in % [13] [%]	Pre-emergence action at 320 g/ha against AMARE in % [1] [%]	Pre-emergence action against MATIN in % [14] [%]	Pre-emergence action against STEME in % [15] [%]	Pre-emergence action against VERPE in % [16] [%]	Post-emergence action against AMARE in % ([19]; 320 g/ha) [%]	Post-emergence action against AMARE in % ([19]; 1280 g/ha) [%]	further results
COC(=O)COc1nn(-c2cccc(Cl)c2)c(-c2ccc(F)c(F)c2)c1C#N [I-051]	90	90	80	80	90	90	80	80	80	90	80										
COC(=O)COc1nn(-c2ccccc2F)c(-c2ccccc2)c1C#N [I-022]	100	90	80	80	80	80		80	80		80	100	80	100	100	90	90	100	80	80	Post-emergence action against ECHCG in % [17]: 80%; Post-emergence action against SETVI in % [18]: 80%; Post-emergence action against STEME in % ([8]; 320 g/ha): 80%; herbicidal efficacy against harmful plants in the case of pre-emergence treatment [20]: good herbicidal efficacy
C#Cc1c(OCC(=O)OC)nn(-c2cccc(F)c2)c1-c1cccc(F)c1 [I-069]	90	100					80		80				80	90	90	90	90			90	Pre-emergence action against PHBPU in % [21]: 80%; herbicidal efficacy against harmful plants in the case of pre-emergence treatment [20]: good herbicidal efficacy
COC(=O)COc1nn(-c2cccc(F)c2)c(-c2ccc(F)cc2)c1C#N [I-012]	100			80			80		80	80		100			100	100			80	80	Post-emergence action against STEME in % ([8]; 320 g/ha): 80%
COC(=O)COc1nn(-c2ccccc2F)c(-c2ccccc2)c1Cl [I-015]	90				90	90	80				90			90	90	90	90	90	80	80	Pre-emergence action against PHBPU in % [21]: 100%
